# Structures can show the parent of a compound that is named as a salt.
# Biological target: T1, peptide A (contig29; N-terminal residues 1-25 of GJC3, hCx30.2/31.3) (Homo sapiens, UniProt Q8NFK1)
# T1 construct: not the full-length connexin
# T1 sequence (Q8NFK1 1-25): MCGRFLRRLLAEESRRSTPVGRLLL
# Experiment: surface plasmon resonance (ProteOn XPR36), immobilised biotinylated peptide
# Assay type: binding
# Conditions: PBS; 0-400 uM titration; N-terminal 25-residue peptide only
row,Compound,"surface plasmon resonance (ProteOn XPR36), immobilised biotinylated peptide"
1,CC1(C)[C@@H](OC(=O)CCC(=O)O)CC[C@]2(C)[C@H]3C(=O)C=C4[C@@H]5C[C@@](C)(C(=O)O)CC[C@]5(C)CC[C@@]4(C)[C@]3(C)CC[C@@H]12 [carbenoxolone disodium salt],"carbenoxolone, exhibited a pronounced binding interaction"
2,CC(C)n1c(/C=C/C(O)CC(O)CC(=O)O)c(-c2ccc(F)cc2)c2ccccc21 (stereo not shown) [fluvastatin sodium salt],"fluvastatin sodium salt, more pronounced binding is seen to peptide A"
3,O=C(O)c1cccnc1Nc1cccc(C(F)(F)F)c1 [niflumic acid],concentration dependent binding profile of niflumic acid was observed with peptide A
4,CCC(C)(C)C(=O)O[C@H]1C[C@@H](C)C=C2C=C[C@H](C)[C@H](CC[C@@H](O)C[C@@H](O)CC(=O)O)[C@H]21 [simvastatin sodium salt],"simvastatin acid sodium salt exhibited a weak, concentration dependent binding profile"
